{"source": "paper PMC7463460", "about": "“Structure and Antiparasitic Activity Relationship of Alkylphosphocholine Analogues against Leishmania donovani” (Microorganisms, 2020)", "key": {"[1]": {"system": "L. donovani 087/11 Milt-Sb-intermediate promastigotes", "assay": "Promastigote luciferase assay, Milt-resistant 087/11", "assay_type": "cell-based, Leishmania donovani", "settings": "for IC50: Leishmania donovani, read-out: Mean IC50 Value Promastigotes; for Cross-Resistance Index (CRI50) Promast / Promast: Amast Ratio: strain 087/11, Milt-Sb-intermediate", "text": "(§1) L. donovani cloned strains with different Sb susceptibility backgrounds were derived from isolates obtained from VL patients at the B.P. Koirala Institute of Health Sciences, Dharan, Nepal: MHOM/NP/02/BPK282/0cl4 (Sb sensitive, Sb-S). MHOM/NP/02/BPK087/0cl11 (Sb intermediate, Sb-I) and MHOM/NP/02/BPK275/0cl18 (Sb resistance, Sb-R [13]). In addition, Milt-resistant parasites raised against these three Sb sensitivity backgrounds and the Sb-sensitive strain (MHOM/ET/67:LV82) was also used in studies. Luciferase expressing promastigotes for the LV82 and Nepalese strains were prepared using previously published methods and the integrative construct (a gift from Dr D.F. Smith), designated pGL1313, contained pSSU-int fragments to facilitate integration into the ribosomal RNA locus of Leishmania.\n(§2) The anti-leishmanial activity of APC against L. donovani luciferase-expressing promastigotes was determined by adding of the appropriate 100 µL parasite line (10^6 cells/mL) to the wells of a 96-well plate and adding 100 µL medium alone (controls) or 100 µL of APC compound (0.01 µg/mL–6.25 µg/mL, n = 3/treatment). […].\n(§3) Luciferin solution (1 µg/mL in 20 µL medium without FCS) was added to the appropriate wells of the 96-well plate at the end of the experiment and the amount of light emitted/well was measured using a luminometer (Biotek Synergy HT, relative light units) using a wavelength/bandwidth of 440/40 nm, or IVIS® imaging (Spectrum Living Image system®, total flux, photons/sec).\n(§4) The effect of drug treatment on parasite survival was determined by calculating the mean suppression in the light emitted from the drug-treated experimental sample compared to the mean control value and used to calculate the IC50 using Grafit® software (version 5.0, Erithacus Software, East Grinstead, West Sussex, UK). The effect of drug alone on the viability of uninfected macrophages was determined using the same experimental protocol above, but cell viability was determined using an alamar blue colorimetric assay. At the end of the incubation period, cells’ 10 µL resazurin solution (0.02% w/v) was added to control and drug treated cells and the absorbance of samples was read at 575 and 595 nm. The effect of drug treatment on cell survival, which correlates with the magnitude of dye reduction, was expressed as percentage viability (or alamar blue reduction) and determined using the formula provided in the manufacturer’s protocol % alamar blue reduction=(εoxλ)(Aλ1)−(εoxλ1)(Aλ2)/(εredλ1)(A^′λ2)−(εredλ2)(A^′λ1)x100\n(§5) Cross resistance (CRI50) indexes were determined as Cross selectivity indices (CRI)=mean IC50 value for the relevant drug−resistant strain i.e., Sb−I or Sb−R / mean IC50 value drug−sensitive strain Sb−S"}, "[2]": {"system": "L. donovani LV82 promastigotes", "assay": "Luciferase-expressing promastigote assay, strain LV82", "assay_type": "cell-based, Leishmania donovani", "settings": "for Promast: Amast Ratio / IC90: LV82; for IC50 / IC90: Leishmania donovani; for IC50: 72 h", "description": "(§6) The anti-leishmanial activity of APC against L. donovani luciferase-expressing promastigotes was determined by adding of the appropriate 100 µL parasite line (10^6 cells/mL) to the wells of a 96-well plate and adding 100 µL medium alone (controls) or 100 µL of APC compound (0.01 µg/mL–6.25 µg/mL, n = 3/treatment). The plate was incubated for 72 h at 25 °C. In combination assays, the additional compound/compounds, at a final concentration of 0.195 or 0.39 µg/mL, was added to the initial APC being tested.\nas §3, §4"}, "[3]": {"system": "L. donovani 275/18 (Sb-resistant) promastigotes", "assay": "Promastigote luciferase assay, Sb-resistant strain 275/18", "assay_type": "cell-based, Leishmania donovani", "settings": "for IC50: Leishmania donovani, read-out: Mean IC50 Promastigotes; for Promast: Amast Ratio: strain 275/18, Sb-resistant; for Cross-Resistance Index (CRI50) Promast: strain 275/18, Sb-resistant vs Sb-S", "text": "as §1, §2, §3, §4, §5"}, "[4]": {"parameters": "method as in Anatrace product description sheet", "settings": "critical micellar concentration; ref Anatrace product description sheet; cited from earlier work"}, "[5]": {"system": "L. donovani 282/4 (Sb-sensitive) promastigotes", "assay": "Promastigote luciferase assay, Sb-sensitive strain 282/4", "assay_type": "cell-based, Leishmania donovani", "settings": "strain 282/4, Sb-sensitive; for IC50: Leishmania donovani", "text": "as §1, §6, §3, §4"}, "[6]": {"system": "L. donovani 282/4 Milt-Sb-sensitive promastigotes", "assay": "Promastigote luciferase assay, Milt-resistant 282/4", "assay_type": "cell-based, Leishmania donovani", "settings": "for IC50: Leishmania donovani, read-out: Mean IC50 Value Promastigotes; for Promast: Amast Ratio: strain 282/4, Milt-Sb-sensitive", "text": "as §1, §6, §3, §4"}, "[7]": {"system": "L. donovani 282/4 (Sb-sensitive) intracellular amastigotes", "assay": "Intracellular amastigote assay, Sb-sensitive strain 282/4", "assay_type": "cell-based, Leishmania donovani", "settings": "strain 282/4, Sb-sensitive; for IC50: Leishmania donovani; for Selectivity Index (SI50): macrophage CC50 / amastigote IC50", "text": "as §1\nIn the macrophage studies, the method described in previous studies was used as follows. […] It is possible that intracellular macrophage parasites could have been at different developmental stages at 24 h post-infection. […] Therefore, we assumed that the effect of compounds on the amastigote stage rather than the promastigotes stage was determined in in vitro macrophage studies.\nThe plate was incubated for a further 24 h, the medium removed, and each well washed with PBS to eliminate non-internalized parasites, which were monitored microscopically. […] Wells with macrophage and with no drug or promastigotes added were used in control experiments.\nas §3\nas §4, with “At the end of the incubation period, cells’ 10 µL resazurin solution (0.02% w/v) was added to control and drug treated cells and the absorbance of samples was read at 575 and 595 nm.” left out"}}, "note": "Values joined by “and” are separate entries in the source; they are usually repeats but may differ in a detail not shown here. Identical values can stand only once."}
{"smiles": "CCCCCCCCCCCCOP(=O)([O-])OCC[N+](C)(C)C", "note": "[APC12, dodecylphosphocholine]", "values": [{"measurement": "IC50", "setting": "[1]", "result": "184 µg/mL and 520 µM"}, {"measurement": "Cross-Resistance Index (CRI50) Promast", "setting": "[1]", "result": "> 1.47"}, {"measurement": "Promast: Amast Ratio", "setting": "[1]", "result": 29.82}, {"measurement": "Promast: Amast Ratio", "setting": "[2]", "result": 16.46}, {"measurement": "Promastigotes mean IC50", "setting": "[2]; LV82, 3 days, 25 °C", "result": "0.16 ± 0.00", "unit": "µg/mL"}, {"measurement": "IC50", "setting": "[2]; LV82, 3 days, 25 °C", "result": "0.163 µg/mL and 460 nM"}, {"measurement": "IC90", "setting": "[2]", "result": 1.47, "unit": "µg/mL"}, {"measurement": "fold more active than Milt (APC16)", "setting": "[2]; promastigotes", "result": 10, "unit": "fold"}, {"measurement": "IC50", "setting": "[3]", "result": "0.49 µg/mL and 1.39 µM"}, {"measurement": "Promast: Amast Ratio", "setting": "[3]", "result": 2.10}, {"measurement": "Cross-Resistance Index (CRI50) Promast", "setting": "[3]", "result": 0.89}, {"measurement": "CMC", "setting": "[4]", "result": 351.50, "unit": "µg/mL"}, {"measurement": "IC50", "setting": "[5]", "result": "0.55 µg/mL and 1.56 µM"}, {"measurement": "Promast: Amast Ratio", "setting": "[5]", "result": 2.09}, {"measurement": "IC50", "setting": "[6]", "result": "> 125 µg/mL and > 356 µM"}, {"measurement": "Promast: Amast Ratio", "setting": "[6]", "result": ">1562.5"}, {"measurement": "IC50", "setting": "[7]", "result": "0.26 µg/mL and 740 nM"}, {"measurement": "Selectivity Index (SI50)", "setting": "[7]", "result": 136.08}]}
{"smiles": "CCCCCCCCCCCCCCOP(=O)([O-])OCC[N+](C)(C)C", "note": "[APC14, tetradecylphosphocholine]", "values": [{"measurement": "IC50", "setting": "[1]", "result": "232 µg/mL and 630 µM"}, {"measurement": "Cross-Resistance Index (CRI50) Promast", "setting": "[1]", "result": "> 1.86"}, {"measurement": "Promast: Amast Ratio", "setting": "[1]", "result": 23.13}, {"measurement": "Promast: Amast Ratio", "setting": "[2]", "result": 7.97}, {"measurement": "IC50", "setting": "[2]; LV82, 3 days, 25 °C", "result": "0.2 µg/mL and 530 nM"}, {"measurement": "IC50", "setting": "[3]", "result": "0.37 µg/mL and 970 nM"}, {"measurement": "Promast: Amast Ratio", "setting": "[3]", "result": 1.31}, {"measurement": "Cross-Resistance Index (CRI50) Promast", "setting": "[3]", "result": 0.84}, {"measurement": "CMC", "setting": "[4]", "result": 45.54, "unit": "µg/mL"}, {"measurement": "IC50", "setting": "[5]", "result": "0.44 µg/mL and 1.16 µM"}, {"measurement": "Promast: Amast Ratio", "setting": "[5]", "result": 3.64}, {"measurement": "IC50", "setting": "[6]", "result": "> 125 µg/mL and > 329 µM"}, {"measurement": "Promast: Amast Ratio", "setting": "[6]", "result": ">72.25"}, {"measurement": "IC50", "setting": "[7]", "result": "0.12 µg/mL and 320 nM"}, {"measurement": "Selectivity Index (SI50)", "setting": "[7]", "result": 340.75}]}
{"smiles": "CCCCCCCCCCCCCCCCOP(=O)([O-])OCC[N+](C)(C)C", "note": "[APC16, hexadecylphosphocholine, reference compound]", "values": [{"measurement": "IC50", "setting": "[1]", "result": "242 µg/mL and 560 µM"}, {"measurement": "Promast: Amast Ratio", "setting": "[1]", "result": 19.13}, {"measurement": "Promast: Amast Ratio", "setting": "[2]", "result": 7.00}, {"measurement": "IC50", "setting": "[2]; LV82, 3 days, 25 °C", "result": "0.7 µg/mL and 1.72 µM"}, {"measurement": "IC90", "setting": "[2]", "result": "6.3 ± 0.1", "unit": "µg/mL"}, {"measurement": "IC50", "setting": "[3]", "result": "1.26 µg/mL and 3.09 µM"}, {"measurement": "Promast: Amast Ratio", "setting": "[3]", "result": 2.49}, {"measurement": "CMC", "setting": "[4]", "result": 0.41, "unit": "µg/mL"}, {"measurement": "IC50", "setting": "[5]", "result": "0.84 µg/mL and 2.06 µM"}, {"measurement": "Promast: Amast Ratio", "setting": "[5]", "result": 2.68}, {"measurement": "IC50", "setting": "[6]", "result": "> 125 µg/mL and > 307 µM"}, {"measurement": "Promast: Amast Ratio", "setting": "[6]", "result": ">77.64"}, {"measurement": "IC50", "setting": "[7]", "result": "0.31 µg/mL and 760 nM"}]}
